Test results reported in patent US4560545A, “Basic aluminum magnesium carbonate” (Anphar S.A., priority 1978, dated 1985).
Like-named read-outs stand apart in the source and are kept apart here.

What was measured:
[1] = system: pepsin; conditions: rats, 4 hour ligature; for reduction of pepsin enzyme activity of gastric juice: at the higher doses
Text: (§1) In a further series of experiments the detergent action of bile was used to sensitize the rat stomach to the ulcerogenic action of indomethacin.

[2] = system: ulcers; experiment: bile-sensitized stomach, ulcerogenic action of indomethacin; conditions: rat stomach sensitized with bile, 31.25-125 mg/kg orally
Text: as §1

[3] = system: gastric acid secretion; conditions: human volunteers, pentagastrin 6 μg/kg i.m., 1 g suspension 30 minutes later, versus aluminium hydroxide gel
Procedure: Gastric acid secretion was induced by injection of pentagastrin (6 μg/kg i.m.). Thirty minutes later a suspension of 1 g of compound I or aluminium hydroxide was given (2 groups of 6 volunteers, double blind parallel). Samples of gastric juice were taken before giving pentagastrin (basal level), 30 minutes after injection of pentagastrin and at intervals of 30, 60, 90 and 120 minutes after giving the antacids. In each case the pH, free acid content and pepsin content were measured.

[4] = 4 hour pyloric ligature of the stomach: pH and total acid content of stomach contents; conditions: rats, 31.25-500 mg/kg orally 1 hour before sacrifice
Text: as §1

[5] = antacid activity in simulated gastric juice (modified Holbert technique, automatic titrator); assay type: physicochemical; conditions: for Vol. of gastric juice added: added at 0.7 ml/min. until pH fell below 3; for pH of suspension after 1 min.: about 0.125 g powder in 20 ml, 37° C.
Procedure: Approximately 0.125 g of powder was added to 20 ml of simulated gastric juice (U.S.P.) and stirred vigorously at 37° C. The pH was registered at 1, 5 and 10 minutes and then the automatic burette was started and synthetic gastric juice was added at a rate of 0.7 ml/min. until the pH fell below 3. The time taken and the amount of gastric juice added to reach pH 3 was observed.

[6] = system: ulcers; experiment: 18 hour pyloric ligature: incidence of ulcers; assay type: in vivo; conditions: rats, 18 hours ligature
[7] = pH stat, pH 4, suspension in water
[8] = Procedure: The ability of compound I to absorb bile acids was measured at pH 7 and pH 4 (the analytical method was based on the reaction between sulphuric acid, furfural and cholic acid; Pettenkofer, Ann. Chem. Pharm. 52, 90, 1884). The product was suspended in the appropriate buffer and a solution of the bile acid or ox bile was added, samples being taken at intervals of time.
[9] = gastric juice DP, double quantity of pepsin
[10] = gastric juice DP, with double quantity of pepsin
[11] = gastric juice N, normal U.S.P. simulated gastric juice
[12] = gastric juice SP, without pepsin

basic aluminium magnesium carbonate [compound I]
reduction of pepsin enzyme activity of gastric juice [1]: 78.9% | reduction of pepsin enzyme activity, pH of the gastric juice readjusted to 2 ([1]; higher doses, pH readjusted to 2 (optimal for pepsin activity)): 32.5% | reduction of the incidence of ulcers (inhibition) [2]: up to 54% | antipepsin effect (pepsin content of gastric juice) [3]: greater antipepsin effect | reduction of free hydrochloric acid levels in gastric juice [3]: reduced the free hydrochloric acid levels more rapidly and had a longer duration of action than aluminium hydroxide gel | effect on pH of the stomach contents [4]: dose dependent increases in the pH of the stomach contents | reduction of total acid content [4]: up to 85% | buffering capacity ([5]; U.S.P. simulated gastric juice): highest buffering capacity | Vol. of gastric juice added [5, 9]: 22.36 mL | pH of suspension after 1 min. [5, 10]: 4.55 | pH of suspension after 1 min. [5, 11]: 4.25 | Vol. of gastric juice added ([5]; gastric juice N, normal U.S.P.): 21.2 mL | pH of suspension after 1 min. [5, 12]: 4.00 | Vol. of gastric juice added [5, 12]: 10.9 mL | velocity of neutralisation ([5]; pH after 1 minute in the optimal zone, pH 3-5): high velocity of neutralisation | ability to absorb acid in the presence of pepsin ([5]; simulated gastric juice with pepsin versus without): increased ability to absorb acid in the presence of pepsin | reduction in the incidence of ulcers compared with placebo treated controls ([6]; 31.25 mg/kg orally at the same time as the operation): 58% | acid-binding capacity [7]: higher at pH 4 than any of the other substances | Percentage absorption of bile acids ([8]; Cholic Acid, Buffer pH 4, 1 hr): 80.5 Percentage | Percentage absorption of bile acids ([8]; Cholic Acid, Buffer pH 4, 3 hr): 86.3 Percentage | Percentage absorption of bile acids ([8]; Cholic Acid, Buffer pH 7, 1 hr): 0 Percentage | Percentage absorption of bile acids ([8]; Cholic Acid, Buffer pH 7, 3 hr): 12 Percentage | Percentage absorption of bile acids ([8]; Ox bile, Buffer pH 4, 1 hr): 69.0 Percentage | Percentage absorption of bile acids ([8]; Ox bile, Buffer pH 4, 3 hr): 70.0 Percentage | Percentage absorption of bile acids ([8]; Ox bile, Buffer pH 7, 1 hr): 17.3 Percentage | Percentage absorption of bile acids ([8]; Ox bile, Buffer pH 7, 3 hr): 25.8 Percentage | Percentage absorption of bile acids ([8]; Taurocholic acid, Buffer pH 4, 1 hr): 65.4 Percentage | Percentage absorption of bile acids ([8]; Taurocholic acid, Buffer pH 4, 3 hr): 71.7 Percentage | Percentage absorption of bile acids ([8]; Taurocholic acid, Buffer pH 7, 1 hr): 0.6 Percentage | Percentage absorption of bile acids ([8]; Taurocholic acid, Buffer pH 7, 3 hr): 20.8 Percentage

dry aluminium hydroxide gel U.S.P. [F1]
Vol. of gastric juice added [5, 9]: 4.80 mL | pH of suspension after 1 min. [5, 10]: 2.79 | pH of suspension after 1 min. [5, 11]: 2.93 | Vol. of gastric juice added ([5]; gastric juice N, normal U.S.P.): 7.40 mL | pH of suspension after 1 min. [5, 12]: 3.30 | Vol. of gastric juice added [5, 12]: 17.43 mL

Magaldrate U.S.P. [F2]
Vol. of gastric juice added [5, 9]: 2.40 mL | pH of suspension after 1 min. [5, 10]: 2.65 | pH of suspension after 1 min. [5, 11]: 1.95 | Vol. of gastric juice added ([5]; gastric juice N, normal U.S.P.): 1.70 mL | pH of suspension after 1 min. [5, 12]: 1.40 | Vol. of gastric juice added [5, 12]: 1.92 mL

[OH][Al]([OH])[OH] [aluminium hydroxide, reference compound]
reduction of pepsin enzyme activity of gastric juice [1]: without effect on the pepsin activity | reduction of the incidence of ulcers (inhibition) [2]: 32% | effect on pH of the stomach contents [4]: much less influence on pH | reduction of total acid content [4]: 12% | reduction in ulceration ([6]; 125 mg/kg): 43%
